Measurements: US20250241990A1, “THERAPEUTIC AGENT” (priority 2022, published 2025)

B1: NIpD: recombinant NIpD protein; bacterial protein, e.g. from E. coli 83972; may comprise or consist of SEQ ID NO: 1 (protein, listed as Escherichia coli)
chain: MSAGSPKFTVRRIAALSLVSLWLAGCSDTSNPPAPVSSVNGNAPANTNSGMLITPPPKMGTTSTAQQPQIQPVQQPQIQATQQPQIQPMQPVAQQPVQMENGRIVYNRQYGNIPKGSYSGSTYTVKKGDTLFYIAWITGNDFRDLAQRNNIQAPYALNVGQTLQVGNASGTPITGGNAITQADAAEQGVVIKPAQNSTVAVASQPTITYSESSGEQSANKMLPNNKPTATTVTAPVTVPTASTTEPIVSSTSTSTPISTWRWPTEGKVIETFGASEGGNKGIDIAGSKGQAIIATADGRVVYAGNALRGYGNLIIIKHNDDYLSAYAHNDTMLVREQQEVKAGQKIATMGSTGTSSTRLHFEIRYKGKSVNPLRYLPQR

System: E. coli CFT073
Assay: Irf3−/− mice infected with E. coli CFT073 by intravesical instillation; genetic model of acute pyelonephritis and urosepsis
Format: in vivo
Conditions: for bacterial growth in urine: at day 21 and 42; for long term protection against infection and inflammation: daily i.p. treatment for 7 days, follow-up to day 42, FIG. 2; for urine neutrophil numbers: long-term follow-up (day 21 and 42)
Experimental: Irf3^−/− mice were infected with E. coli CFT073 (50 μl of 2.109 cfu/ml) by intravesical instillation. Intraperitoneal treatment was administered daily, starting 6 hours after infection and for 7 days. Mice were treated with recombinant NIpD protein (105 μg in 100 μl) or IL-1RA (Anakinra, 1 mg/kg, 100 μl). Control mice received PBS. Urine sampling for bacterial and neutrophil counts were done on day 1, 3, 5 and 7 in one group of animals (those sacrificed on day 7), and on day 1, 3, 5, 7, 21 and 42 in others.
Animals were sacrificed under anesthesia; kidneys and bladders were asceptically removed and in the case of bladders, macroscopic pathology was documented by photography. Tissues were fixed with 4% paraformaldehyde or frozen for sectioning and RNA extraction. Viable counts in homogenized tissues (Stomacher 80, Seward Medical) were determined on TSA (37° C., overnight). Urine samples were collected prior to and at regular times after infection and quantitatively cultured. Neutrophils in uncentrifuged urine were counted, using a hemocytometer.

| Molecule | bacterial growth in urine | long term protection against infection and inflammation | urine neutrophil numbers |
| --- | --- | --- | --- |
| IL-1RA: interleukin-1 receptor antagonist (IL-1 RA), anakinra | no bacterial growth in urine | long term protection | low urine neutrophil numbers |
| B1 | no bacterial growth in urine | long term protection | low urine neutrophil numbers |
